Among the test systems are A498 renal; LXFL 529 NSCLC; HOP-62 NSCLC; SN12C renal; MALME-3M melanoma; SF-268 CNS; HCC-2998 colon; HOP-18 NSCLC; SR leukemia; MCF7 breast.
Holding throughout (experiment): NCI-60 cell line screen, 48 h

Several values for one entry are separate records, joined by “and”; a condition that tells them apart may be missing. Equal values may be shown once.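 These data come from cells grown in 96-well plates and exposed to compound for 48 hours at five concentrations. The concentration for 50% growth inhibition is given as GI50. TGI: total growth inhibition.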

With `Cc1ccc(Sc2cc([N+](=O)[O-])cc(Sc3ccc(C)cc3)c2Sc2ccc(C)cc2)cc1`, the TGI with A498 renal, in the experiment with LXFL 529 NSCLC, with HOP-62 NSCLC, in the experiment with SN12C renal, in the experiment on MALME-3M melanoma and in the experiment with SF-268 CNS was over 100 µM throughout. Besides, in the experiment on HCC-2998 colon, the TGI was over 100 µM.

Turning to `O=C1OC(=O)C2C1C1(c3ccccc3)OC2(c2ccccc2)c2c(Br)c(Br)c(Br)c(Br)c21` (stereo not drawn), the TGI in the experiment on A498 renal, with LXFL 529 NSCLC, in the experiment on HOP-62 NSCLC, in the experiment with HOP-18 NSCLC, with SN12C renal and in the experiment with MALME-3M melanoma was over 100 µM each time. The compound also yielded a TGI in the experiment on SF-268 CNS of over 100 µM.

For the compound `CCCCCCCCCCCCCCCc1nc(SCC(=O)O)n[nH]1`, the TGI is over 100 µM in the experiment on SR leukemia; 66.4 µM in the experiment on LXFL 529 NSCLC; over 100 µM in the experiment with HOP-62 NSCLC; over 100 µM in the experiment with HOP-18 NSCLC; over 100 µM with SN12C renal; over 100 µM in the experiment on MALME-3M melanoma. Moreover, the TGI with SF-268 CNS and in the experiment on HCC-2998 colon was over 100 µM each time.

`O=c1c2ccc(Br)cc2nc(-c2ccccc2)n1NC1OC(CO)C(O)C(O)C1O` (stereo not drawn): the TGI in the experiment on A498 renal, with LXFL 529 NSCLC, in the experiment on HOP-62 NSCLC, with HOP-18 NSCLC, with SN12C renal and in the experiment with MALME-3M melanoma was over 100 µM in each case. Besides, the TGI in the experiment with SF-268 CNS and in the experiment with HCC-2998 colon was over 100 µM in each case.

Regarding `COc1ccc(/C=C\c2cc(OC)c(OC(C)=O)c(OC)c2)cc1`, the TGI with A498 renal is 45 µM; in the experiment on SR leukemia it was 98.2 µM; in the experiment with LXFL 529 NSCLC, over 100 µM; in the experiment on HOP-62 NSCLC it was 85.6 µM; in the experiment on SN12C renal it was 30.8 µM; in the experiment with MALME-3M melanoma it was 91.1 µM. Besides, the TGI is over 100 µM in the experiment on SF-268 CNS and 36.7 µM with HCC-2998 colon.

On to `COc1nc(C(Cl)(Cl)Cl)c(Cl)c(OC)c1Cl`, for which the GI50 was over 35.9 µM in the experiment with A498 renal; over 45.5 µM with SR leukemia; over 43.2 µM with HOP-62 NSCLC; over 45.4 µM in the experiment on MALME-3M melanoma; over 52.2 µM with SF-268 CNS. Besides, the TGI in the experiment with A498 renal was > 55.7 µM and 96.2 µM; with SR leukemia, > 72.1 µM and 82.6 µM; in the experiment with HOP-62 NSCLC, > 62.8 µM and 22.5 µM; with HOP-18 NSCLC it was 70.1 µM; in the experiment on SN12C renal, > 52.9 µM and 74 µM; in the experiment on MCF7 breast it was 66.8 µM. For the same compound, the TGI was > 65.8 µM and 64.4 µM with MALME-3M melanoma; > 92.1 µM and 72.2 µM with SF-268 CNS; > 58.3 µM and 95 µM in the experiment with HCC-2998 colon.

Take `O=C(c1ccccc1)C(c1ccccc1)C1(O)C(=O)Nc2ccc(Br)cc21` (stereo not drawn): the TGI in the experiment with A498 renal is over 100 µM; with SR leukemia, over 100 µM; with LXFL 529 NSCLC, 53.1 µM; in the experiment with HOP-62 NSCLC, over 100 µM; in the experiment on SN12C renal it was over 100 µM; in the experiment on MALME-3M melanoma, over 100 µM. For the same compound, the TGI in the experiment on SF-268 CNS and in the experiment with HCC-2998 colon was over 100 µM each time.

`O=P1(NCCCl)OCCC(OO)N1CCCl` (stereo not drawn): the TGI was over 93.3 µM in the experiment on A498 renal; over 100 µM in the experiment on SR leukemia; over 100 µM with HOP-62 NSCLC; over 100 µM in the experiment on HOP-18 NSCLC; over 100 µM in the experiment on SN12C renal; over 100 µM in the experiment on MCF7 breast. The TGI with MALME-3M melanoma was 31.7 µM; in the experiment on SF-268 CNS it was over 100 µM; in the experiment on HCC-2998 colon, over 100 µM.

In the case of `Cn1c(=O)ccc2cc(C(=O)c3ccccc3)ccc21`, the TGI in the experiment on A498 renal, in the experiment on LXFL 529 NSCLC, in the experiment with HOP-62 NSCLC, in the experiment on HOP-18 NSCLC, in the experiment with SN12C renal and in the experiment on MALME-3M melanoma was over 100 µM throughout. Besides, the TGI in the experiment with SF-268 CNS and in the experiment on HCC-2998 colon was over 100 µM each time.

Take `CCOC(=O)/C(C#N)=C/c1[nH]c(C)c(C)c1C`: the TGI in the experiment on A498 renal, with LXFL 529 NSCLC, in the experiment with HOP-62 NSCLC, in the experiment on HOP-18 NSCLC, with SN12C renal and in the experiment on MALME-3M melanoma was over 100 µM throughout. Besides, the TGI in the experiment with SF-268 CNS and with HCC-2998 colon was over 100 µM throughout.

For `O=C1C2Cc3ccccc3CN2C(=O)N1CCN1CCOCC1` (stereo not drawn), the TGI with A498 renal, with SR leukemia, in the experiment with LXFL 529 NSCLC, in the experiment with HOP-62 NSCLC, in the experiment with SN12C renal and with MALME-3M melanoma was over 100 µM each time. Besides, the TGI in the experiment on SF-268 CNS and in the experiment with HCC-2998 colon was over 100 µM in each case.

Take `O=C1CCC(=O)C12CCc1ccccc12`: the TGI in the experiment on LXFL 529 NSCLC, in the experiment with HOP-62 NSCLC, in the experiment on HOP-18 NSCLC, in the experiment on SN12C renal, in the experiment with MALME-3M melanoma and with SF-268 CNS was over 100 µM each time. The same compound displayed a TGI with HCC-2998 colon of over 100 µM.

For the compound `CC1(C)OC(=O)C(c2ccsc2)C(=O)O1`, the TGI in the experiment with SR leukemia, in the experiment with LXFL 529 NSCLC, in the experiment with HOP-62 NSCLC, in the experiment with HOP-18 NSCLC, in the experiment with SN12C renal and in the experiment on MALME-3M melanoma was over 100 µM in each case. In addition, the TGI in the experiment on SF-268 CNS and with HCC-2998 colon was over 100 µM each time.

As for `COC(=O)C1=CCS(=O)(=O)C1`, the TGI with A498 renal, in the experiment on LXFL 529 NSCLC, with HOP-62 NSCLC, with HOP-18 NSCLC, in the experiment on SN12C renal and in the experiment on MALME-3M melanoma was over 100 µM each time. Also, the TGI with SF-268 CNS and with HCC-2998 colon was over 100 µM each time.

In the case of `OC1OC2COC(c3ccccc3)OC2C(O)C1O` (stereo not drawn), the TGI with A498 renal, with LXFL 529 NSCLC, in the experiment with HOP-62 NSCLC, with HOP-18 NSCLC, in the experiment with SN12C renal and with MALME-3M melanoma was over 100 µM throughout. The TGI with SF-268 CNS and with HCC-2998 colon was over 100 µM in each case.

Take `Nc1c(-c2ccc(-c3c(N)[n+]([O-])c4ccccc4[n+]3[O-])cc2)[n+]([O-])c2ccccc2[n+]1[O-]`: the TGI with A498 renal came to 35.5 µM; with LXFL 529 NSCLC, 35.4 µM; in the experiment on HOP-62 NSCLC, 32.3 µM; with HOP-18 NSCLC, 20.2 µM; in the experiment with SN12C renal it was 34.4 µM; in the experiment with MALME-3M melanoma, 8.57 µM. Further, the figures for the TGI in the experiment with SF-268 CNS and with HCC-2998 colon were 66.2 µM and 29.6 µM, respectively.

With `Fc1cccc(C2SCc3nc4ccccc4n32)c1` (stereo not drawn), the TGI with SR leukemia, with LXFL 529 NSCLC, in the experiment on SN12C renal, in the experiment on MALME-3M melanoma, with SF-268 CNS and in the experiment on HCC-2998 colon was over 100 µM each time.

For the origin of these results see PubChem BioAssay (NCI).
